Experimental data from patent US8871753B2, “Macrocyclic compounds and their use as kinase inhibitors” (Incyte Corporation, priority 2008, dated 2014).
pIC50: −log10 of the molar value. Counter-ions that a name gives are not always drawn. Like-named read-outs stand apart in the source and are kept apart here.

Key:
Format in all cases: biochemical
[1] = biological target: T1, human JAK1 (a.a. 837-1142) (Homo sapiens, UniProt P23458); assay: In vitro JAK kinase assay (HTRF, phosphorylation of a biotinylated peptide), JAK1; settings: read-out: JAK1 IC50
T1 construct: human JAK1 (a.a. 837-1142); His tag (N); made in house; host or cells: insect cells (baculovirus)
Outline: (§1)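 Kinase activity was measured as phosphorylation of a biotinylated peptide, with ATP at 90 μM for JAK1, 30 μM for JAK2 and 3 μM for JAK3. Reactions ran 1 hr at room temperature, were stopped with EDTA plus SA-APC and Eu-Py20, and were read by HTRF after 40 minutes of antibody binding.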

[2] = biological target: T2, human JAK2 (a.a. 828-1132) (Homo sapiens, UniProt O60674); assay: In vitro JAK kinase assay (HTRF, phosphorylation of a biotinylated peptide), JAK2
T2 construct: JAK2 (a.a. 828-1132); His tag (N); made in house; host or cells: insect cells (baculovirus)
Outline: as §1

[3] = biological target: T3, human JAK3 (a.a. 781-1124) (Homo sapiens, UniProt P52333); assay: In vitro JAK kinase assay (HTRF, phosphorylation of a biotinylated peptide), JAK3
T3 construct: JAK3 (a.a. 781-1124); His tag (N); made in house; host or cells: insect cells (baculovirus)
Outline: as §1

TYK2 = TYK2 (Homo sapiens, UniProt P29597); assay: TYK2 kinase inhibition (Table A1)
[4] = biological target: T4, Recombinant Human Anaplastic Lymphoma Kinase (Homo sapiens, UniProt Q9UM73); assay: ALK HTRF kinase assay
T4 construct: purchased Invitrogen, Carlsbad, Calif
Outline: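 Recombinant human ALK with biotinylated peptide substrate; phosphorylation detected by HTRF using Eu-labelled anti-phosphotyrosine antibody and streptavidin-allophycocyanin. IC50 from a sigmoidal fit with Hill slope.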

[5] = percentage inhibition of the example compound at a concentration of 500 nM or 1 mM (not specified which)
[6] = Table B1, cells without percent sign
[7] = method AA1 (90 μM ATP) or AA2 (1000 μM ATP), not stated per value
[8] = method AA1 (30 μM ATP) or AA2 (1000 μM ATP), not stated per value
[9] = method AA1 (3 μM ATP) or AA2 (1000 μM ATP), not stated per value
[10] = compound at 500 nM or 1 mM, 90 μM ATP
[11] = compound at a concentration of 500 nM or 1 mM (not specified), cells shown as percentage

T1 sequence (P23458 849-1154): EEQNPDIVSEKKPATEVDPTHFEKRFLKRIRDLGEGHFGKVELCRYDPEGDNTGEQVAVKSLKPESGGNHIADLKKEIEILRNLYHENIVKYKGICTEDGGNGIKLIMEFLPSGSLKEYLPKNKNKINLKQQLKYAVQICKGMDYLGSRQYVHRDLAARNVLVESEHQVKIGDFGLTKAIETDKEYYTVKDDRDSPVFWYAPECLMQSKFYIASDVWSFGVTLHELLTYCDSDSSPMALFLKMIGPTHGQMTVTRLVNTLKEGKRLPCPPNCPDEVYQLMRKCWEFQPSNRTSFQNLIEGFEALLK
T3 sequence (P52333 781-1124): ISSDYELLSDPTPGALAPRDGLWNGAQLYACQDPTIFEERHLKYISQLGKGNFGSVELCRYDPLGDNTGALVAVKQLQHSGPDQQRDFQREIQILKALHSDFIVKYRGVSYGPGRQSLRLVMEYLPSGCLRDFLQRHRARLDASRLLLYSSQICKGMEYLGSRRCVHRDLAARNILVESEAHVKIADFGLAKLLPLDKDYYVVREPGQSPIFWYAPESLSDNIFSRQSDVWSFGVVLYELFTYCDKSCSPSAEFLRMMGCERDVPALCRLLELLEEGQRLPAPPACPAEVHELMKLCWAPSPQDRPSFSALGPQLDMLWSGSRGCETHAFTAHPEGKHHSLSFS
T4 sequence (Q9UM73 19-1620): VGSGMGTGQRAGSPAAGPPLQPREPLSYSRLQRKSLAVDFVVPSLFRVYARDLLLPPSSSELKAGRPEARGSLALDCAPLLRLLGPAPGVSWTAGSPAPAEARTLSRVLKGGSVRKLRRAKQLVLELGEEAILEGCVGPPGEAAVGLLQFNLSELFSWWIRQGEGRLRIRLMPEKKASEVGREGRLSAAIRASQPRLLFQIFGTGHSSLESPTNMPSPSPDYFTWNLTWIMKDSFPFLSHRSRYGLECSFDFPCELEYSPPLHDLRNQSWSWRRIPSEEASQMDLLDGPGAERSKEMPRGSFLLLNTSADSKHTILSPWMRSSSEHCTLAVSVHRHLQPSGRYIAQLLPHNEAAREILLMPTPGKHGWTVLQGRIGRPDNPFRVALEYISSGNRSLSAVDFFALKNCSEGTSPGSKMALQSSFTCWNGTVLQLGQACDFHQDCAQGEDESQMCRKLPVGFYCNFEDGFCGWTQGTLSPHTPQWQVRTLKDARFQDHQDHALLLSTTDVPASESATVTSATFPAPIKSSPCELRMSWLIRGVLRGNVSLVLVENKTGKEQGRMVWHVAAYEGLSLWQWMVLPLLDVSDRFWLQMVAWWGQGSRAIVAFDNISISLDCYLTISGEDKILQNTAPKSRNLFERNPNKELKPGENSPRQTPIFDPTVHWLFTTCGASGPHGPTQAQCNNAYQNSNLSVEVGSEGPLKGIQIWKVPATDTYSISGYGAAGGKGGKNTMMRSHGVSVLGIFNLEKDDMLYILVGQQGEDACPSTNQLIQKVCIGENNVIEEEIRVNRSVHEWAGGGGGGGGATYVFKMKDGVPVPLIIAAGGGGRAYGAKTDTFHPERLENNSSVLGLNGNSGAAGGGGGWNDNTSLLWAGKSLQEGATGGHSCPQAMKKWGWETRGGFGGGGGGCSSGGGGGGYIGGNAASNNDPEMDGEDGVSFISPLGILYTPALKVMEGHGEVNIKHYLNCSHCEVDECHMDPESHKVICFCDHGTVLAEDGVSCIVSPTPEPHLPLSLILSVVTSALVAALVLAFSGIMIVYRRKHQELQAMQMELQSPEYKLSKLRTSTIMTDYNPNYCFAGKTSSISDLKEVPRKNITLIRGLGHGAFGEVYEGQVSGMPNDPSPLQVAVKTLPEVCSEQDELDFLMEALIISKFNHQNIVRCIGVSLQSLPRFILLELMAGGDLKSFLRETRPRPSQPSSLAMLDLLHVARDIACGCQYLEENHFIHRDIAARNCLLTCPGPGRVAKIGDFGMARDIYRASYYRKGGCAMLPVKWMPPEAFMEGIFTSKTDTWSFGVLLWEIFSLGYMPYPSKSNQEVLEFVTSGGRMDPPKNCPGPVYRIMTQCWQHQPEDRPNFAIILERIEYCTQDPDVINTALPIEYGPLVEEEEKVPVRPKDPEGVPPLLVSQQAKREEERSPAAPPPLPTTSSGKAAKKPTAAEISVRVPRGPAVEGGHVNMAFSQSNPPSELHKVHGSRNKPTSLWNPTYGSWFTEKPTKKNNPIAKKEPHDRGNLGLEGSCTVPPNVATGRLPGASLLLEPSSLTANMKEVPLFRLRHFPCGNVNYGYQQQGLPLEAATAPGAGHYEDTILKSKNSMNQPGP
Chain of TYK2 (P29597 whole entry): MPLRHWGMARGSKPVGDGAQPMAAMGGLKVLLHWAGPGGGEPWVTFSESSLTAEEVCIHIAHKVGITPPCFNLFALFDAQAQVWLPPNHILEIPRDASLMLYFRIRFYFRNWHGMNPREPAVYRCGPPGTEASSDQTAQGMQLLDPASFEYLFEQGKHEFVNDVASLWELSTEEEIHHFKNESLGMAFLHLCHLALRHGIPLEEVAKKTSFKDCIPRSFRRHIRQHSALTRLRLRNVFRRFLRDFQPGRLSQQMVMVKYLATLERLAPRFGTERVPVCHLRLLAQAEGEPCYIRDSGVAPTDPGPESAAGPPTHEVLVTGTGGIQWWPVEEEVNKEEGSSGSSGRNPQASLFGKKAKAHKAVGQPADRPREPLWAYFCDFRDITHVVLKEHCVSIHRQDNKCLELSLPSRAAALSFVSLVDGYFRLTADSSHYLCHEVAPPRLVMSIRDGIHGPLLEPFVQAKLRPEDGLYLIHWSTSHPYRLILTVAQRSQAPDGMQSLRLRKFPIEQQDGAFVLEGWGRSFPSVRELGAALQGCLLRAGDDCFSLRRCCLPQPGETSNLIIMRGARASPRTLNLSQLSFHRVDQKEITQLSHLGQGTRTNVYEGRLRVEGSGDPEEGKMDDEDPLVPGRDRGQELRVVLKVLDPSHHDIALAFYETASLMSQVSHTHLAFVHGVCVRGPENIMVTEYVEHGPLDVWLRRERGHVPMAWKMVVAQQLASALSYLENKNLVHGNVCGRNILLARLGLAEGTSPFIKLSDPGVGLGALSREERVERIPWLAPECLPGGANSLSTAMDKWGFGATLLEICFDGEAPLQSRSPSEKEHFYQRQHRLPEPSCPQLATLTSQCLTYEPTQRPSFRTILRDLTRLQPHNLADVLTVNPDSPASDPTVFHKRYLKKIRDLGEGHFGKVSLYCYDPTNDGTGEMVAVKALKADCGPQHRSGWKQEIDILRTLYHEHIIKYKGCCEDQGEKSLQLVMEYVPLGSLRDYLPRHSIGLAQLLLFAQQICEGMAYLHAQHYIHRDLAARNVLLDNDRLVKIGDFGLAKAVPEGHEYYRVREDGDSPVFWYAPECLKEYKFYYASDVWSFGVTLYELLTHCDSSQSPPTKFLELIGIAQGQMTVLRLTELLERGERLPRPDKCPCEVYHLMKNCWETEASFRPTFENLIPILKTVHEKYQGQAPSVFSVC
T2 sequence (O60674 828-1132): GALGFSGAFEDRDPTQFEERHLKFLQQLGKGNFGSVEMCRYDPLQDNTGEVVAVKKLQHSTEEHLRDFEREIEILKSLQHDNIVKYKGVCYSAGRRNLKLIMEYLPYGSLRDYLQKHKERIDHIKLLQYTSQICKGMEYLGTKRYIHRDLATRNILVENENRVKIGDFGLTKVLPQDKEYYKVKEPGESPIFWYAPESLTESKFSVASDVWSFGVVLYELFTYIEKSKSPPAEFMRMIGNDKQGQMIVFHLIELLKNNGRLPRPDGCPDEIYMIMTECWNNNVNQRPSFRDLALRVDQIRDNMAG

Row | SMILES | pIC50 ([1]; Table B1) | pIC50 ([2]; Table B1) | pIC50 ([3]; Table B1) | pIC50 (TYK2; Table B1) | ALK % of inhibition at a concentration of 500 nM or 1 mM [4, 11] | other results
1 | Cc1ncoc1C(=O)N1CCC(CN(C)Cc2ccc3cc2CCc2cncc(c2)Nc2ncc(Cl)c(n2)N3)CC1 [Example B347, 1-[6-Chloro-2,4,8,18,22-pentaazatetracyclo[14.3.1.1(3,7).1(9,13)]docosa-1(20),3(22),4,6,9(21),10,12,16,18-nonaen-12-yl]-N-methyl-N-({1-[(4-methyl-1,3-oxazol-5-yl)carbonyl]piperidin-4-yl}methyl)methanamine tris(trifluoroacetate)] | 7.24 | 6.43 | < 6.40 | < 6.40 |  | ALK % of inhibition at a concentration of 500 nM or 1 mM [4, 5]: 45%
2 | O=C(Nc1cc2cc(c1)Nc1nc(ncc1Cl)Nc1cccc(c1)CC2)c1nccs1 [Example B209, N-[6-Chloro-2,4,8,22-tetraazatetracyclo[14.3.1.1(3,7).1(9,13)]docosa-1(20),3(22),4,6,9(21),10,12,16,18-nonaen-11-yl]-1,3-thiazole-2-carboxamide trifluoroacetate] | 7.19 | 7.29 | 6.85 | 6.96 |  | pIC50 [4, 6]: < 6.00
3 | Cc1nccc(N2CCC(CC(=O)Nc3ccc4cc3CCc3cncc(c3)Nc3ncc(Cl)c(n3)N4)CC2)n1 [Example A182, N-[6-Chloro-2,4,8,18,22-pentaazatetracyclo[14.3.1.1(3,7).1(9,13)]docosa-1(20),3(22),4,6,9(21),10,12,16,18-nonaen-12-yl]-2-[1-(2-methylpyrimidin-4-yl)piperidin-4-yl]acetamide tris(trifluoroacetate)] |  |  |  |  |  | pIC50 [1, 7]: 7.32; pIC50 [2, 8]: < 6.70; pIC50 [3, 9]: < 6.70; pIC50 (TYK2): < 6.70; ALK % of inhibition at a concentration of 500 nM or 1 mM [4, 10]: 32%
4 | O=C(Nc1ccc2cc1CCc1cccc(c1)Nc1ncc(Cl)c(n1)N2)NC1CC1 [Example B240, N-[6-Chloro-2,4,8,22-tetraazatetracyclo[14.3.1.1(3,7).1(9,13)]docosa-1(20),3(22),4,6,9(21),10,12,16,18-nonaen-12-yl]-N′-cyclopropylurea trifluoroacetate] | 8.82 | 9.13 | 8.00 | 8.40 | 15% | 
5 | O=S1(=O)Nc2cccc(c2)Nc2nc(ncc2Cl)Nc2cccc1c2 [Example C6, 6-Chloro-15-thia-2,4,8,14,22-pentaazatetracyclo[14.3.1.1(3,7).1(9,13)]docosa-1(20),3(22),4,6,9(21),10,12,16,18-nonaene 15,15-dioxide trifluoroacetate] |  |  |  |  |  | pIC50 [1]: 6.66; pIC50 [2]: 7.15; pIC50 [3]: 6.42; pIC50 (TYK2): 6.62; pIC50 [4]: < 5.00
6 | CC(C)(C)OC(=O)N1CCN(CCNC(=O)Nc2ccc3cc2CCc2cccc(c2)Nc2ncc(Cl)c(n2)N3)CC1 [Example B259, tert-Butyl 4-{2-[({[6-chloro-2,4,8,22-tetraazatetracyclo[14.3.1.1(3,7).1(9,13)]docosa-1(20),3(22),4,6,9(21),10,12,16,18-nonaen-12-yl]amino}carbonyl)amino]ethyl}piperazine-1-carboxylate] | 8.42 | 8.15 | 7.28 | 7.64 | 13% | 
7 | Cc1ccc(Cl)cc1NC(=O)Nc1ccc2cc1CCc1cccc(c1)Nc1ncc(Cl)c(n1)N2 [Example B123, N-(5-Chloro-2-methylphenyl)-N′-[6-chloro-2,4,8,22-tetraazatetracyclo[14.3.1.1(3,7).1(9,13)]docosa-1(20),3(22),4,6,9(21),10,12,16,18-nonaen-12-yl]urea trifluoroacetate] | 8.10 | 7.82 | 6.96 | 7.49 | 16% | 
8 | O=C(Nc1ccc2cc1CCc1cccc(c1)Nc1ncc(Cl)c(n1)N2)c1ccc(C(F)(F)F)nc1 [Example B77, N-[6-Chloro-2,4,8,22-tetraazatetracyclo[14.3.1.1(3,7).1(9,13)]docosa-1(20), 3(22),4,6,9(21),10,12,16,18-nonaen-12-yl]-6-(trifluoromethyl)nicotinamide bis(trifluoroacetate)] | 9.08 | 8.66 | 8.12 | 8.10 | 54% | 
9 | O=C(CC1CCN(C(=O)Nc2ccccc2)CC1)Nc1ccc2cc1CCc1cccc(c1)Nc1ncc(Cl)c(n1)N2 [Example A58, 4-(2-{[6-Chloro-2,4,8,22-tetraazatetracyclo[14.3.1.1(3,7).1(9,13)]docosa-1(20),3(22),4,6,9(21),10,12,16,18-nonaen-12-yl]amino}-2-oxoethyl)-N-phenylpiperidine-1-carboxamide trifluoroacetate] |  |  |  |  |  | pIC50 [1, 7]: 9.70; pIC50 [2, 8]: 8.96; pIC50 [3, 9]: 7.66; pIC50 (TYK2): 8.00; ALK % of inhibition at a concentration of 500 nM or 1 mM [4, 10]: 38%
10 | O=C(Nc1ccc2cc1CCc1cncc(c1)Nc1ncc(Cl)c(n1)N2)N1CCN(S(=O)(=O)c2ccccc2)CC1 [Example B319, N-[6-Chloro-2,4,8,18,22-pentaazatetracyclo[14.3.1.1(3,7).1(9,13)]docosa-1(20),3(22),4,6,9(21),10,12,16,18-nonaen-12-yl]-4-(phenylsulfonyl)piperazine-1-carboxamide bis(trifluoroacetate)] | 7.38 | < 6.40 | < 6.40 | 6.54 |  | ALK % of inhibition at a concentration of 500 nM or 1 mM [4, 5]: 58%
11 | O=C(Nc1ccc2cc1CCc1cccc(c1)Nc1ncc(Cl)c(n1)N2)[C@@H]1CCCN1C(=O)Nc1ccccc1 [Example A69, (2S)—N(2)-[6-Chloro-2,4,8,22-tetraazatetracyclo[14.3.1.1(3,7).1(9,13)]docosa-1(20),3(22),4,6,9(21),10,12,16,18-nonaen-12-yl]-N(1)-phenylpyrrolidine-1,2-dicarboxamide trifluoroacetate] |  |  |  |  |  | pIC50 [1, 7]: 7.39; pIC50 [2, 8]: 8.11; pIC50 [3, 9]: 7.80; pIC50 (TYK2): 7.41; ALK % of inhibition at a concentration of 500 nM or 1 mM [4, 10]: 27%
12 | O=C(Nc1ccc2cc1CCc1cccc(c1)Nc1ncc(Cl)c(n1)N2)c1ccc2occc2c1 [Example B79, N-[6-Chloro-2,4,8,22-tetraazatetracyclo[14.3.1.1(3,7).1(9,13)]docosa-1(20), 3(22),4,6,9(21),10,12,16,18-nonaen-12-yl]-1-benzofuran-5-carboxamide trifluoroacetate] | 9.08 | 9.24 | 8.55 | 8.77 | 91% | 

Further lines, with some results ahead:

Row | pIC50 ([1]; Table B1) | pIC50 ([2]; Table B1) | pIC50 ([3]; Table B1) | pIC50 (TYK2; Table B1) | ALK % of inhibition at a concentration of 500 nM or 1 mM [4, 11] | SMILES | other results
13 | 8.49 | 8.72 | 7.82 | 8.22 |  | COc1ccc(C(=O)Nc2ccc3cc2CCc2cccc(c2)Nc2ncc(Cl)c(n2)N3)cc1 [Example B67, N-[6-Chloro-2,4,8,22-tetraazatetracyclo[14.3.1.1(3,7).1(9,13)]docosa-1(20), 3(22),4,6,9(21),10,12,16,18-nonaen-12-yl]-4-methoxybenzamide trifluoroacetate] | pIC50 [4, 6]: 6.66
14 | 7.51 | 8.00 | 7.43 | 7.34 | 27% | CC(=O)N1CCN(Cc2ccc3cc2CCc2cccc(c2)Nc2ncc(Cl)c(n2)N3)CC1 [Example B225, 12-[(4-Acetylpiperazin-1-yl)methyl]-6-chloro-2,4,8,22-tetraazatetracyclo[14.3.1.1(3,7).1(9,13)]docosa-1(20),3(22),4,6,9(21),10,12,16,18-nonaene bis(trifluoroacetate)] | 
15 | 7.32 | 7.54 | 6.78 | 7.18 | 1.3% | N#Cc1ccccc1S(=O)(=O)Nc1cc2cc(c1)Nc1nc(ncc1Cl)Nc1cccc(c1)CC2 [Example B216, N-[6-Chloro-2,4,8,22-tetraazatetracyclo[14.3.1.1(3,7).1(9,13)]docosa-1(20),3(22),4,6,9(21),10,12,16,18-nonaen-11-yl]-2-cyanobenzenesulfonamide trifluoroacetate] | 
16 | 7.44 | 7.25 | 7.00 | 6.69 |  | O=C(Nc1ccccc1)Nc1cc2cc(c1)Nc1nc(ncc1Cl)Nc1cccc(c1)CC2 [Example B202, N-[6-Chloro-2,4,8,22-tetraazatetracyclo[14.3.1.1(3,7).1(9,13)]docosa-1(20),3(22),4,6,9(21),10,12,16,18-nonaen-11-yl]-N′-phenylurea trifluoroacetate] | pIC50 [4, 6]: 5.44
17 | 7.55 | 7.55 | 8.20 | 8.26 | 66% | O=C(Nc1nc(C(=O)O)cs1)Nc1ccc2cc1CCc1cccc(c1)Nc1ncc(Cl)c(n1)N2 [Example B250, 2-[({[6-Chloro-2,4,8,22-tetraazatetracyclo[14.3.1.1(3,7).1(9,13)]docosa-1(20),3(22),4,6,9(21),10,12,16,18-nonaen-12-yl]amino}carbonyl)amino]-1,3-thiazole-4-carboxylic acid trifluoroacetate] | 
